Experimental data published in patent US5242902A, “Defensin peptide compositions and methods for their use” (The Regents of the University of California, priority 1989, dated 1993).

Experiments:
[1] = test system: Nakano mouse lens epithelial cells; assay: In vitro cell growth assay (3H-thymidine incorporation, cell counts), serum free; format: cell-based
Method: (§1) Cell growth assays were performed as previously described in Reid et al., (1987), J. Biol. Chem. 262:229-233. Briefly, cells were grown to confluence in 96-well plates in media plus serum and arrested in G0/G1 by either serum starvation for 2-days (epithelial cells) or 8-10 day serum depletion followed by serum starvation for 1-day (fibroblasts). At this point the media was removed and new media with the desired factors was added. Approximately 16 hours later ^3 -thymidine was added and 20 to 28 hours later the cells were washed, lysed and the amount of ^3 H-thymidine incorporated into DNA was measured. In some cases, actual cell counts were performed.
(§2) The growth stimulatory properties of human defensins HNP-1, HNP-2, HNP-3 and rabbit defensins NP-1 and NP-5 in a serum free growth assay system were tested. SIRC rabbit corneal epithelial cells, Nakano mouse lens epithelial cells, and NIH 3T3 fibroblasts were utilized in these studies.

[2] = test system: SIRC rabbit corneal epithelial cells; assay: In vitro cell growth assay (3H-thymidine incorporation), serum free; format: cell-based
Method: as §1, §2

NIH 3T3 fibroblasts = assay: as above; format: cell-based
Method: as §1, §2

[3] = test system: capsaicin-treated corneas; format: in vivo
Method: Capsaicin-treated corneas from adult rabbits were used to determine the effects of topically applied defensins on corneal re-epithelialization. Capsaicin depletes neuropeptides which have an effect on wound healing (data not shown). The rabbits received 0.4 ml of lidocaine diluted in 2.6 ml of sterile saline delivered subcutaneously between the cranial aspect of the interscapular space. After 10 minutes, 50 mg/kg of capsaicin (100 mg/ml) was delivered through a 11/2 inch 25 gauge needle. Repeat injections of capsaicin was given once a day for four additional days. Three weeks from the last injection bilateral corneal defects were created as described below and the eyes treated topically with test solutions. The cornea was treated with two drops of test solution after creation of the epithelial defect. Upon completion of surgery, the rabbit was returned to its cage onto a warm heating pad. Sequential corneal photographs were taken after installation of fluoroscein and the rate of epithelial wound healing determined.
The effects of topically applied HNP-1 on the epithelial wound healing of neuropeptide depleted rabbit corneas was investigated. Corneas of rabbits treated systemically with capsaicin have impaired epithelial healing. In this model, capsaicin (50 mg/kg) was injected subcutaneously for 5 consecutive days into New Zealand white rabbits. Lidocaine was delivered subcutaneously into the capsaicin injection site 10 minutes prior to the first injection. Three weeks after the injections, the animals were anesthetized (ketamine/xylazine), topical anesthetic applied to the cornea, and the epithelium debrided circumferentially to the limbal margin of clear cornea. Absolute alcohol on microcellulose sponges and a dull #15 Bard Parker blade were used to remove the epithelium. Care was taken that no alcohol ran over the clear corneal edge to damage the limbal epithelium. The corneas were stained with fluorescein and photographed twice daily to monitor re-epithelialization. […]

[4] = test system: panel of organisms in stationary growth phase; conditions: cited from earlier work

Substance | growth promoting response with bovine serum albumin ([1]; 5 mg/ml BSA added at varying times after stimulation (FIGS. 7 and 8), preliminary) | stimulatory properties (DNA synthesis) ([2]; corneal epithelial cells (FIG. 9)) | effect at higher concentrations ([2]; corneal epithelial cells, higher concentrations) | suppression at higher concentrations (NIH 3T3 fibroblasts; 3T3 fibroblast cells, higher concentrations) | stimulatory properties (DNA synthesis) (NIH 3T3 fibroblasts; 3T3 fibroblasts, presence and absence of insulin (FIG. 10)) | time to re-epithelialization of treated eye ([3]; 100 μg/ml topical 4 times a day, control eye healed at 6.5 days) [days] | re-epithelialization of treated versus fellow control eye ([3]; 100 μg/ml topical, one rabbit) | effect on the cornea or conjunctiva (tolerability) ([3]; topical, 4 times a day, 40 or 100 μg/ml in sterile water, four rabbits) | relative antimicrobial potency among defensins [4] | actual cell number ([1]; cell counts (FIG. 6)) | stimulatory effect on cell number compared with insulin and EGF ([1]; insulin and EGF at concentrations which elicit maximal response (FIG. 6))
HNP-1: human neutrophil defensin peptide isolated from PMN; sequence in Table 1 | response curve is shifted to the right and that the plateau phase is extended | stimulatory | suppression observed at higher concentrations | not observed | stimulatory | 5.5 | both corneas re-epithelialized simultaneously | no deleterious effect on the cornea or conjunctiva | most potent antimicrobial properties |  | 
HNP-3: human neutrophil defensin peptide; sequence in Table 1 |  |  |  |  |  |  |  |  |  | increase in actual cell number | surpassed that of insulin and EGF
